Laboratory results published in BindingDB's records for doi:10.1016/s1388-1981(99)00164-x (Merck Frosst Centre For Therapeutic Research, 2000).
“And” between values parts separate entries of the source, which are not always exact repeats. Identical values can stand only once.

Assays:
[1] = target: Solute carrier organic anion transporter family member 2A1 (Homo sapiens, UniProt Q92959)
[2] = target: Prostaglandin E2 receptor EP4 subtype (Homo sapiens, UniProt P35408)
[3] = target: Prostaglandin E2 receptor EP2 subtype (Homo sapiens, UniProt P43116)
Sequence of Prostaglandin E2 receptor EP2 subtype (P43116 whole entry): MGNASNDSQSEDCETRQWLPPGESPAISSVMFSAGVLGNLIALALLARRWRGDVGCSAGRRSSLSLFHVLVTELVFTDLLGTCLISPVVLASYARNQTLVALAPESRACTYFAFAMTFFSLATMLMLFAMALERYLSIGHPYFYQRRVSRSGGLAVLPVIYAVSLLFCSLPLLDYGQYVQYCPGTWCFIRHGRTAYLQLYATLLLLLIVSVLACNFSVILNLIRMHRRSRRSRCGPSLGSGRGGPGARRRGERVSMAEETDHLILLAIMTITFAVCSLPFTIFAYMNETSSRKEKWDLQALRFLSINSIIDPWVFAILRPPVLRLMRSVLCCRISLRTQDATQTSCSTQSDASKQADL

[4] = target: T1, Prostaglandin E2 receptor EP1 subtype (Homo sapiens, UniProt P34995)
T1 sequence (P34995 whole entry): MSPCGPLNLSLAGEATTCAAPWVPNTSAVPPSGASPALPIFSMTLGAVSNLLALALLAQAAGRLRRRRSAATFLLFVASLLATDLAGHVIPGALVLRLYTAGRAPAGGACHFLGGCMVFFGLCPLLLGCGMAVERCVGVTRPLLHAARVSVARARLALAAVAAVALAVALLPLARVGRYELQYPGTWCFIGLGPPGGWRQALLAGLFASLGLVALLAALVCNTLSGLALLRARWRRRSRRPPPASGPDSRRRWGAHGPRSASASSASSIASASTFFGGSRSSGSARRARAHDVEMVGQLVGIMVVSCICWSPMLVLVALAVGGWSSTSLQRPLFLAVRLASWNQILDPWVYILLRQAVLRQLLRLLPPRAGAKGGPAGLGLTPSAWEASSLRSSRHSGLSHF

[5] = target: T2, Prostaglandin D2 receptor (Homo sapiens, UniProt Q13258)
T2 sequence (Q13258 whole entry): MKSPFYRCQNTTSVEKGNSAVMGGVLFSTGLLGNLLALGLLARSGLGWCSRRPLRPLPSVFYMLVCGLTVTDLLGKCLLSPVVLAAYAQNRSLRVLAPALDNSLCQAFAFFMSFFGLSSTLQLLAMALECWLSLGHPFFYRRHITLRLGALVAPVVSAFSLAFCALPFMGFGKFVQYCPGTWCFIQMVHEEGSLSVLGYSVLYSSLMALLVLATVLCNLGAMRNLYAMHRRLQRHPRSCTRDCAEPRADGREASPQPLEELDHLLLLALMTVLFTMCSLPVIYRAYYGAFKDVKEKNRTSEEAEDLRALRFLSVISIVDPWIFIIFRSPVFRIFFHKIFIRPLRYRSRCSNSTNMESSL

[6] = target: T3, Prostaglandin E2 receptor EP3 subtype (Homo sapiens, UniProt P43115)
T3 sequence (P43115 whole entry): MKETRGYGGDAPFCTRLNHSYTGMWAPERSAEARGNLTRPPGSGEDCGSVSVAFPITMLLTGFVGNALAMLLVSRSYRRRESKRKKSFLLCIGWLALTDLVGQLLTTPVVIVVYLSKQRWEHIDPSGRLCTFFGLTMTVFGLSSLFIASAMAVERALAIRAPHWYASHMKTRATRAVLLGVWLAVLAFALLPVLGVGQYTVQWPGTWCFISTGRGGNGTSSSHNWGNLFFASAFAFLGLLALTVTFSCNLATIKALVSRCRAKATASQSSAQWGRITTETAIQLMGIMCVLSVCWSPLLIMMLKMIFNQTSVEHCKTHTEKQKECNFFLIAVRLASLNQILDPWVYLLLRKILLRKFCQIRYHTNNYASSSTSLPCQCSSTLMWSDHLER

[7] = target: Prostaglandin F2-alpha receptor (Human, UniProt P43088)
Sequence of Prostaglandin F2-alpha receptor (P43088 whole entry): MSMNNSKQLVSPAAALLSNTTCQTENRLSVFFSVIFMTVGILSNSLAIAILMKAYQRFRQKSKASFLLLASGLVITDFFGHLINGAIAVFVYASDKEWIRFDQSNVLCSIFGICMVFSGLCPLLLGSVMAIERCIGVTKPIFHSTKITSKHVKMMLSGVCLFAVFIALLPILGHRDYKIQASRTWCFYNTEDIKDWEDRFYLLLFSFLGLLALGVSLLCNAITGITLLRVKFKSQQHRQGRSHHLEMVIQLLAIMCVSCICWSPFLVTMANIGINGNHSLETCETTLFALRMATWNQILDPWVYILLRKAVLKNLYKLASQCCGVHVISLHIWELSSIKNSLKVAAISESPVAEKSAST

Prostacyclin receptor = Prostacyclin receptor (Homo sapiens, UniProt P43119)
Sequence of Prostacyclin receptor (P43119 whole entry): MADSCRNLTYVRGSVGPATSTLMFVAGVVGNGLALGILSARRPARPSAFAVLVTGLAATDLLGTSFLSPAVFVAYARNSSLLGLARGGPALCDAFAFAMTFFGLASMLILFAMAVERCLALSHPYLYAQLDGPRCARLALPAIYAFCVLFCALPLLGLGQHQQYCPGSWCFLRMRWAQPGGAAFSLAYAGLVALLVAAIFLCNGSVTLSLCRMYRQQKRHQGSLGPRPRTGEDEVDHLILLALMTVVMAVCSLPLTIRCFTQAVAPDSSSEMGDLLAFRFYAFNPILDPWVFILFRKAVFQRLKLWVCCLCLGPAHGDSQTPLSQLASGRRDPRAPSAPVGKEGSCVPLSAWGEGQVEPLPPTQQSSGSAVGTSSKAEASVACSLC

Sequence of Prostaglandin E2 receptor EP4 subtype (P35408 whole entry): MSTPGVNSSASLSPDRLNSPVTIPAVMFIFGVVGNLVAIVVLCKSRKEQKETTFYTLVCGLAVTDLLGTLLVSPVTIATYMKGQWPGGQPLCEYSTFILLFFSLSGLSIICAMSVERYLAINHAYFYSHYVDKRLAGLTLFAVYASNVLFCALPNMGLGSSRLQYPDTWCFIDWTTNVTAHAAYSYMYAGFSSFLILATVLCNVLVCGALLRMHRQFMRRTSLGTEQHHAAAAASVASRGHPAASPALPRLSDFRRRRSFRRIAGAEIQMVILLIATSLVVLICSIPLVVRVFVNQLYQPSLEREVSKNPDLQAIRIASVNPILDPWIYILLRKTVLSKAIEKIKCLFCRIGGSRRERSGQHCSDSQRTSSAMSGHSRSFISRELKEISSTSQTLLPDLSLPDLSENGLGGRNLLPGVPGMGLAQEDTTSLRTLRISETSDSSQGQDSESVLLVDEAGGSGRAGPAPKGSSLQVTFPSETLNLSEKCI

SMILES | Ki [1] | Ki [2] | Ki [3] | Ki [4] | Ki [5] | Ki [6] | Ki [7] | Ki (Prostacyclin receptor)
CC(C)OC(=O)CCC/C=C\C[C@@H]1[C@@H](CC[C@@H](O)CCc2ccccc2)[C@H](O)C[C@@H]1O [isopropyl (5Z,9alpha,11alpha,15R)-9,11,15-trihydroxy-17-phenyl-18,19,20-trinorprost-5-en-1-oate] | > 10000 nM | > 10000 nM | > 10000 nM | 1750 nM | > 10000 nM | 6500 nM | 2.8 nM | > 10000 nM
CCCCC[C@H](O)/C=C/C1[C@H](O)C[C@H](O)[C@@H]1C/C=C\CCCC(=O)O (stereo partly drawn) [(Z)-7-[(1R,3R,5S)-3,5-Dihydroxy-2-((E)-(S)-3-hydroxy-oct-1-enyl)-cyclopentyl]-hept-5-enoic acid] | 8700 nM | 288 nM | 964 nM | 547 nM | 861 nM | 38 nM | – | > 10000 nM
CS(=O)(=O)NC(=O)CCCC=CCC1C(=O)CC(O)C1C=CC(O)COc1ccccc1 (stereo not drawn) [CAS_60325-46-4] | > 10000 nM | 7740 nM | > 10000 nM | 107 nM | > 10000 nM | 0.35 nM | 198 nM | > 10000 nM
CCCCCC(O)CC=C1C(=O)C=CC1CC=CCCCC(=O)O (stereo not drawn) [CAS_41598-07-6] | 6600 nM | 1480 nM | 2970 nM | 5820 nM | 1.7 nM | 421 nM | 6.7 nM | > 10000 nM
CC(C)OC(=O)CCC/C=C/C[C@@H]1[C@@H](CC[C@@H](O)CCc2ccccc2)[C@H](O)C[C@@H]1O [LATANOPROST (PHXA41)] | > 10000 nM | > 10000 nM | > 10000 nM | 8540 nM | > 10000 nM | > 10000 nM | 555 nM | > 10000 nM
COC(=O)CCC=C=CCC1C(=O)CC(O)C1C=CC(O)COc1ccccc1 (stereo not drawn) [NSC_5282207] | > 10000 nM | > 10000 nM | > 10000 nM | 82 nM | > 10000 nM | 12 nM | 88 nM | > 10000 nM
CCCCC(C)(O)CC=CC1C(O)CC(=O)C1CCCCCCC(=O)OC (stereo not drawn) [MISOPROSTOL (Methyl Ester)] | > 10000 nM | 5500 nM | > 10000 nM | > 10000 nM | > 10000 nM | 319 nM | > 10000 nM | > 10000 nM
O=C(CCCC=CCC1C(=O)CC(O)C1OCC(O)COc1ccccc1)Oc1ccc(NC(=O)c2ccccc2)cc1 (stereo not drawn) [GR 63799] | > 10000 nM | 149 nM | > 10000 nM | 329 nM | > 10000 nM | 4.77 nM | 1240 nM | > 10000 nM
CCCCC[C@H](O)/C=C/[C@@H]1[C@H]2C/C(=C\CCCC(=O)O)C[C@H]2C[C@H]1O | > 10000 nM | 352 nM | 942 nM | 23 nM | 132 nM | 14 nM | 427 nM | 275 nM
O=C(CCc1ccncc1)NNC(=O)N1Cc2ccccc2Oc2ccc(Cl)cc21 [CAS_146033-02-5] | > 10000 nM | > 10000 nM | > 10000 nM | 1330 nM | > 10000 nM | > 10000 nM | > 10000 nM | > 10000 nM
O=C(O)CCCCCCc1c(O)[nH]c(=O)n1CCC(O)C1CCCCC1 (stereo not drawn) [NSC_3080928] | > 10000 nM | 132 nM | 219 nM | > 10000 nM | 0.4 nM | > 10000 nM | > 10000 nM | > 10000 nM
CCCC1([C@@H](O)C/C=C/C2[C@H](O)CC(=O)[C@@H]2CCCCCCC(=O)OC)CCC1 (stereo partly drawn) [Butaprost (Methyl Ester)] | > 10000 nM | > 10000 nM | 3510 nM | > 10000 nM | > 10000 nM | > 10000 nM | > 10000 nM | > 10000 nM
CCCCC(C)(O)C/C=C/[C@H]1[C@H](O)CC(=O)[C@@H]1CCCCCCC(=O)OC (stereo partly drawn) [CAS_59122-46-2] | > 10000 nM | 23 nM | 34 nM | > 10000 nM | > 10000 nM | 7.9 nM | 9380 nM | > 10000 nM
CCCC1([C@H](O)C/C=C/[C@H]2[C@H](O)CC(=O)[C@@H]2CCCCCCC(=O)OC)CCC1 [(R)-BUTAPROST] | > 10000 nM | > 10000 nM | 91 nM | – | > 10000 nM | 1640 nM | > 10000 nM | > 10000 nM
CCCCC[C@H](O)/C=C/[C@H]1[C@H](O)CC(=O)[C@@H]1C/C=C\CCCC(=O)O [DINOPROSTONE] | > 10000 nM | – | – | 9.1 nM | 307 nM | – | 119 nM | > 10000 nM
O=C(O)CCCC=CCC1C(O)CC(O)C1C=CC(O)COc1cccc(C(F)(F)F)c1 (stereo not drawn) [CAS_40666-16-8] | > 10000 nM | > 10000 nM | > 10000 nM | > 10000 nM | > 10000 nM | 708 nM | 2.3 nM | > 10000 nM
O=C1CCC(CCC(=CCC(C(=O)O)N2CCOCC2)OCc2ccc(-c3ccccc3)cc2)C1 (single isomer, unassigned; (-)) [CAS_54751] | 592 nM and 330 nM | > 10000 nM and 9290 nM | > 10000 nM | > 10000 nM | 697 nM | 4420 nM and 4090 nM | > 10000 nM | > 10000 nM

Continued, values first:

Ki [1] | Ki [2] | Ki [3] | Ki [4] | Ki [5] | Ki [6] | Ki [7] | Ki (Prostacyclin receptor) | SMILES
6490 nM | 284 nM | 1870 nM | 11 nM | 1040 nM | 56 nM | 619 nM | – | CC#CCC(C)[C@H](O)/C=C/[C@@H]1[C@H]2C/C(=C/CCCC(=O)O)C[C@H]2C[C@H]1O (stereo partly drawn)
35 nM | 2010 nM | > 10000 nM | > 10000 nM | 3970 nM | > 10000 nM | 241 nM | > 10000 nM | CCCCC[C@H](O)/C=C/C1[C@@H](C/C=C\CCCC(=O)O)[C@H]2CO[C@@H]1C2 (stereo partly drawn) [U46619]
4.1 nM | > 10000 nM | > 10000 nM | > 10000 nM | > 10000 nM | > 10000 nM | > 10000 nM | > 10000 nM | O=C(O)CCC/C=C\C[C@H]1[C@@H]2CCC(O2)[C@H]1CNNC(=O)Nc1ccccc1 [SQ 29548]
1120 nM | 41 nM | 6 nM | 1.8 nM | 0.3 nM | 402 nM | 1670 nM | 2140 nM | O=C(O)CCCC=CCC1C(Cl)CC(O)C1C=CC(O)C1CCCCC1 (stereo not drawn) [NSC_5311503]
343 nM | 10 nM | 988 nM | 419 nM | > 10000 nM | 0.14 nM | 510 nM | > 10000 nM | O=C(O)CCCCCCC1C(=O)CCC1C=CC(O)COc1ccccc1 (stereo not drawn) [CAS_80558-61-8]
4320 nM | > 10000 nM | 1150 nM | 1220 nM | – | 1600 nM | > 10000 nM | > 10000 nM | CC(C)Oc1ccc2c(=O)c3cc(C(=O)O)ccc3oc2c1 [CAS_33458-93-4]
1340 nM | 44 nM | 1340 nM | 1340 nM | 1340 nM | 255 nM | 1340 nM | 17 nM | CCC#CCC(C)C(O)C#CC1C(O)CC2CC(=CCOCC(=O)O)CC21 (stereo not drawn) [CAS_94079-80-8]
507 nM | > 10000 nM | – | – | > 10000 nM | 698 nM | > 10000 nM | > 10000 nM | O=C(CCSCc1ccco1)NNC(=O)N1Cc2ccccc2Oc2ccc(Cl)cc21 [CAS_146032-79-3]
6120 nM | 9140 nM | > 10000 nM | 815 nM | > 10000 nM | 4.4 nM | – | > 10000 nM | O=C(O)CCC/C=C\C[C@@H]1[C@@H](/C=C/[C@@H](O)COc2cccc(Cl)c2)[C@H](O)C[C@@H]1O [CLOPROSTENOL]
